In one data set the test system is modified luciferase. As to the kind of experiment: Luciferase expression in liver, lung, spleen and femur 6 hours after intravenous administration to mice. In kind it is in vivo. Particulars: 6 hours after intravenous 0.5 mpk, mice. In outline:
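Mice (n=3) got a single 0.5 mpk IV dose of each nanoparticle composition, with MC3 and PBS controls alongside. Organ luminescence flux was read 6 h post-dose.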

The next data set concerns luciferase (Luc) mRNA. As to the kind of experiment: Luciferase expression after intramuscular administration to mice. As to conditions: for Total flux 6 hours after intramuscular administration, 0.01 mpk Dose: Luc mRNA; for Total flux 6 hours after intramuscular administration, 0.01 mpk Dose / Novel lipid/MC3 expression ratio, i.m. Luc: intramuscular; for Novel lipid/MC3 expression ratio, i.m. Luc: 6 hr. time point, relative to MC3 formulation. Type of data set: in vivo. The text has this:
The numbers 1-7 in this figure correspond to MC3, Compounds 168-170, and 173-175 respectively.
FIGS. 18A and 18B show the results of luciferase expression measured upon intramuscular administration of various nanoparticle compositions to CD-1 mice at 0.01 mpk. FIG. 18A is a bar graph showing total flux at 6 hr after administration. The numbers above each bar indicate the expression ratio relative to MC3. […] Numbers 1-11 in the Figures refer to compositions containing the following: 1: MC3, 2: Compound 143, 3: Compound 49; 4: Compound 113; 5: Compound 61; 6: Compound 72; 7: Compound 75; 8: Compound 71; 9: Compound 128; 10: Compound 156; 11: Compound 157.
The numbers 1-9 in this figure correspond to MC3, and Compounds 178, 181, 182, 218, 198, 200, 233, and 239, respectively.
The total flux (measured by area under the curve, AUC) induced by administration of a formulation including a given lipid relative to that induced by administration of a formulation including MC3 was also measured for several lipids.
Sample formulations including modified luciferase (Luc) mRNA prepared and administered intramuscularly and the resulting expression and immunogenicity were evaluated simultaneously. Formulations including compounds according to Formula (I), (IA), (IB), (II), (IIa), (IIb), (IIc), (IId), (IIe), (IIf), (IIg), or (III) were prepared and administered at dose of and 0.01 mpk.

A short description of data set [1]: Particle size and polydispersity index of nanoparticle compositions (Zetasizer Nano ZS). Type of data set: physicochemical. Summed up:
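Formulations of ionizable lipid, DSPC, cholesterol and PEG-DMG (50:10:38.5:1.5 mol %) carrying Luc or hEPO mRNA with all uridines as N1-methyl pseudouridine. Dynamic light scattering in 1×PBS gave particle size and polydispersity; zeta potential read in 15 mM PBS.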

The nature of data set [2]: Encapsulation efficiency of RNA in nanoparticle compositions (RIBOGREEN assay). In kind it is physicochemical. Summed up: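 Lipid nanoparticles (ionisable lipid:DSPC:cholesterol:PEG-DMG 50:10:38.5:1.5 mol %) carrying N1-methylpseudouridine luciferase or hEPO mRNA diluted to about 5 μg/mL in TE, pH 7.5, with or without 2% Triton X-100, 15 min at 37° C. RiboGreen fluorescence (ex ~480, em ~520 nm) blank-subtracted; free RNA = intact/disrupted signal.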

In a further data set the test system is hEPO mRNA. As to the kind of experiment: hEPO expression after intravenous administration to rats. In kind it is in vivo, rat. As to conditions: Table 19B; for [hEPO] Lipid/MC3: ratio to MC3. The method, then:
The expression of hEPO and cytokine induction in rats intravenously administered a nanoparticle composition at a dose of 2.0 mpk was measured at 6 h.
The expression of hEPO in rats intravenously administered a nanoparticle composition at a dose of 0.2 mpk or 2.0 mpk was measured at 6 hours. Table 16 summarize the ratio of hEPO expression levels using various nanoparticle compositions as compared to the hEPO expression level using MC3 formulation and the lipid levels in the liver measured 48 hours after administration, as described above. Tables 17 and 18 summarize the lipid levels in the liver and spleen measured 48 hours after administration of Compounds 28, 33, 53, and 54. Liver and spleen levels represent the average values calculated for 3 rats in each group. As is shown in Tables 17 and 18, less than 10% of Compounds 28, 33, 53, and 54 remained in the liver after 48 hours, while greater than 60% of MC3 remained.
Table 19A summarizes the hEPO expression, IP-10 induction, liver and spleen levels, and alanine aminotransferase (ALT) and aspartate aminotransferase (AST) measured upon intravenous administration of formulations including Compounds 48, 49, and 50 to rat at 0.2 and 2 mpk and hEPO mRNA. hEPO concentrations were measured 6 hours after administration, while cytokine induction and liver and spleen levels were measured 48 hours after administration. hEPO and IP-10 concentrations are presented in pg/ml, while liver levels are provided in ng/g. ALT and AST levels are presented in international units.
The expression of hEPO induced by intravenous administration to rats of nanoparticle compositions at various doses was measured at 2, 4, 6, 8, 24, and 48 hour time points. FIGS. 3-6 respectively summarize the hEPO expression measured upon intravenous administration of formulations including Compounds 26, 18, 25, and MC3 to rat at various doses. The lipid levels of Compound 26 in the liver after 48 hours were about 19%.
The expression of hEPO and lipid levels in the liver and spleen in rats intravenously administered a nanoparticle composition at a dose of 0.2 mpk was measured at various time points. Compounds 18 and 25 were selected for comparison with MC3. Lipids were formulated according to the standard MC3 formulation described above. Rats were administered intravenously a single 0.2 mpk dose and expression monitored at 0.25, 0.5, 1, 2, 4, 8, 24, and 48 hours after administration.

[3] abbreviates: Table 1A, lipid:DSPC:cholesterol:PEG-DMG 50:10:38.5:1.5 mol %.
Where [4] appears, read: Table 1B, formulated with hEPO mRNA.
[5] abbreviates: Table 1D, compositions for subcutaneous administration, # formulated with hEPO mRNA.
[6] abbreviates: Table 1E, compositions for subcutaneous administration.

For the compound `CCCC/C=C\CCC(CC/C=C\CCCC)OC(=O)CCCCCCCN(CCO)CCCCCCCC(=O)OCCCCCCCCC` [Compound 60, (5Z,12Z)-Heptadeca-5,12-dien-9-yl 8-((2-hydroxyethyl)(8-(nonyloxy)-8-oxooctyl)amino)octanoate], in the data set on modified luciferase, the “Total Flux, Liver” value is listed as 1.54E+09. Also, the “Total Flux, Lung” value in the data set with modified luciferase came out at 6.25E+06. Moreover, in the data set with modified luciferase, the “Total Flux, Spleen” value is given as 7.12E+06. Besides, in the data set on luciferase (Luc) mRNA, the “Total flux 6 hours after intramuscular administration, 0.01 mpk Dose” value (from here on “Total flux 6 hours”) is 9.48E+07 p/s. The Size was found to be 95.1 nm in data set [1] (setting [3]), 88.9 nm in data set [1] (setting [4]), 87.4 nm in data set [1] (setting [5]) and 93.3 nm in data set [1] (setting [6]). Also, the EE in data set [2] (setting [4]) was determined as 95.20%.

As to `CCCC/C=C\CCC(CC/C=C\CCCC)OC(=O)CCCCCCCN(CCO)CCCCCC(=O)OCCCCCCCCCCC` [Compound 61, (5Z,12Z)-heptadeca-5,12-dien-9-yl 8-((2-hydroxyethyl)(6-oxo-6-(undecyloxy)hexyl)amino)octanoate], in the data set with modified luciferase, the “Total Flux, Liver” value is 6.37E+08; the “Total Flux, Lung” value was determined as 3.56E+06; the “Total Flux, Spleen” value worked out at 1.61E+07. The compound further yielded an AUC in the data set with luciferase (Luc) mRNA (luciferase, intramuscular administration (Table 3H)) of 2.30E+09 p/s*h. The compound also yielded a Size in data set [1] (setting [3]) of 82.1 nm. The compound further registered a Size in data set [1] (setting [6]) of 80.0 nm.

In the case of `CCCCCCCCCOC(=O)CCCCCCCN(CCCCCCCC(=O)OC(CCCCCCCC)CCCCCCCC)CCCNC(=S)N(C)C` [Compound 111, Heptadecan-9-yl 8-((3-(3,3-dimethylthioureido)propyl)(8-(nonyloxy)-8-oxooctyl)amino)octanoate], in the data set on modified luciferase, the “Total Flux, Liver” value is 4.83E+09. The “Total Flux, Lung” value with modified luciferase came to 2.57E+07. Also, the “Total Flux, Spleen” value in the data set with modified luciferase is given as 2.44E+08. Also, the “Total flux 6 hours” value with luciferase (Luc) mRNA stood at 1.58E+08 p/s. In addition, the Size in data set [1] (setting [3]) turned out to be 116.7 nm; in data set [1] (setting [4]), 93.3 nm; in data set [1] (setting [5]), 94.5 nm; in data set [1] (setting [6]), 88.9 nm. In data set [2] (setting [4]), this compound came in with an EE of 91.23%.

`CCCCCCCCCOC(=O)CCCCCCCN(CCCCCCCC(=O)OC(CCCCCCCC)CCCCCCCC)CCCn1ccc(=O)[nH]c1=O` [Compound 114, Heptadecan-9-yl 8-((3-(2,4-dioxo-3,4-dihydropyrimidin-1(2H)-yl)propyl)(8-(nonyloxy)-8-oxooctyl)amino)octanoate]: the “Total flux 6 hours” value in the data set on luciferase (Luc) mRNA was determined as 3.31E+06 p/s. In addition, the Size in data set [1] (setting [3]) is reported as 65.1 nm.

In the case of `CCCCCCCCCOC(=O)CCCCCCCN(CCCN)CCCCCCCC(=O)OC(CCCCCCCC)CCCCCCCC` [Compound 121, Heptadecan-9-yl 8-((3-aminopropyl)(8-(nonyloxy)-8-oxooctyl)amino)octanoate], the “Total flux 6 hours” value in the data set with luciferase (Luc) mRNA is 1.06E+06 p/s.

Turning to `CCCCCCCCC(C)OC(=O)CCCCCN(CCO)CCCCCCCC(=O)OC(CCCCCCCC)CCCCCCCC` (centres unmarked) [Compound 122, Heptadecan-9-yl 8-((6-(decan-2-yloxy)-6-oxohexyl)(2-hydroxyethyl)amino)octanoate], in the data set on modified luciferase, the “Total Flux, Liver” value was determined as 2.63E+09; the “Total Flux, Lung” value was 2.77E+07; the “Total Flux, Spleen” value was 1.56E+07. Besides, in the data set with luciferase (Luc) mRNA, the “Total flux 6 hours” value is reported as 9.19E+07 p/s. This compound registered a Size in data set [1] (setting [3]) of 69.3 nm. Further, in data set [1] (setting [4]), the Size is 70.2 nm. In addition, the Size in data set [1] (Table 1C, compositions for subcutaneous administration) is on record as 80.2 nm. For the same compound, the EE in data set [2] (setting [4]) is 96.27%.

With `CCCCCCCCCOC(=O)CCCCCCCN(C)CCCCCCCC(=O)OC(CCCCCCCC)CCCCCCCC` [Compound 123, Heptadecan-9-yl 8-(methyl(8-(nonyloxy)-8-oxooctyl)amino)octanoate], in the data set on modified luciferase, the “Total Flux, Liver” value turned out to be 2.50E+08; the “Total Flux, Lung” value is reported as 1.78E+06; the “Total Flux, Spleen” value came out at 4.04E+06. Besides, the “Total flux 6 hours” value with luciferase (Luc) mRNA is listed as 1.08E+07 p/s.

Consider `CCCCCCCCC(CCCCCCCC)OC(=O)CCCCCCCN(CCO)CCCCCC(=O)OC(CCCCCCCC)C1CC1` (centres unmarked) [Compound 128, Heptadecan-9-yl 8-((6-((1-cyclopropylnonyl)oxy)-6-oxohexyl)(2-hydroxyethyl)amino)octanoate], for which, in the data set on modified luciferase, the “Total Flux, Liver” value is 5.98E+09; the “Total Flux, Lung” value is on record as 2.16E+07; the “Total Flux, Spleen” value is reported as 7.09E+07. Also, in the data set on luciferase (Luc) mRNA (luciferase), the “Novel lipid/MC3 expression ratio, i.m. Luc” value amounted to 0.99. Moreover, the Size in data set [1] (setting [3]) worked out at 104.1 nm. The compound also yielded a Size in data set [1] (setting [6]) of 73.9 nm.

As for `CCCCCCCCCOC(=O)CCCCCCCN(CCCCCCCC(=O)OC(CCCCCCCC)CCCCCCCC)CCCN/C(=N/[N+](=O)[O-])NC` [Compound 200, Heptadecan-9-yl (E)-8-((3-(3-methyl-2-nitroguanidino)propyl)(8-(nonyloxy)-8-oxooctyl)amino)octanoate], the “hEPO AUC” value with hEPO mRNA was 2.4e+07 pg·h/mL. For the same compound, the “[hEPO] Lipid/MC3” value in the data set with hEPO mRNA is recorded as 1.72E+06. Further, the Size in data set [1] (setting [3]) was found to be 76.2 nm; in data set [1] (setting [4]) it was 95.3 nm. The EE in data set [2] (setting [3]) turned out to be 97.65%; in data set [2] (setting [4]), 97.3%.

Take `CCCCCCCCCOC(=O)CCCCCCCN(CCO)CCCCCC(=O)OC1CCC(CCCCC)CC1` (centres unmarked) [Compound 232, Nonyl 8-((2-hydroxyethyl)(6-oxo-6-((4-pentylcyclohexyl)oxy)hexyl)amino)octanoate]: the “[hEPO] Lipid/MC3” value in the data set with hEPO mRNA came to 0.83. The compound also showed a Size in data set [1] (setting [4]) of 150.3 nm. The same compound returned an EE in data set [2] (setting [4]) of 76.3%.

As for `CCCCCCCCCOC(=O)CCCCCCCN(CCCCCCCC(=O)OC(CCCCCCCC)CCCCCCCC)CCCN/C(=N/S(C)(=O)=O)N(C)C` [Compound 233, Heptadecan-9-yl (Z)-8-((3-(3,3-dimethyl-2-(methylsulfonyl)guanidino)propyl)(8-(nonyloxy)-8-oxooctyl)amino)octanoate], the “Novel lipid/MC3 expression ratio, i.m. Luc” value with luciferase (Luc) mRNA (luciferase) worked out at 0.05. Further, the Size is on record as 66.9 nm in data set [1] (setting [3]), 93.7 nm in data set [1] (setting [4]) and 87.0 nm in data set [1] (setting [5]). Further, the EE in data set [2] (setting [3]) is on record as 97.81%; in data set [2] (setting [4]), 97.6%.

Turning to `CCCCCCCCCOC(=O)CCCCCCCN(CCCCCCCC(=O)OC(CCCCCCCC)CCCCCCCC)CCCC(=O)NC` [Compound 239, Heptadecan-9-yl 8-((4-(methylamino)-4-oxobutyl)(8-(nonyloxy)-8-oxooctyl)amino)octanoate], the “Novel lipid/MC3 expression ratio, i.m. Luc” value with luciferase (Luc) mRNA (luciferase) was found to be 0.01. For the same compound, the Size in data set [1] (setting [3]) worked out at 55.8 nm; in data set [1] (setting [4]) it was 71.3 nm. For the same compound, the EE was 90.42% in data set [2] (setting [3]) and 82.6% in data set [2] (setting [4]).

These data come from US10857105B2, “Compounds and compositions for intracellular delivery of therapeutic agents” (ModernaTX, Inc., priority 2017, dated 2020).
